Data: patent US11247965B2 (VenatoRx Pharmaceuticals, Inc., priority 2017, dated 2022)

How the values were obtained:
[1] = test system: HBV replication in HepAD38 cells; assay: Anti-HBV activity in HepAD38 cells, extracellular HBV DNA by QPCR; type: cell-based, HBV (genotype D, serotype ayw); conditions: Hepatitis B virus, HePAD38, 168 h, read-out: Anti-HBV EC50, HepAD38 cells, extracellular HBV DNA by QPCR, 7 days of incubation
Method in brief: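 Seven-day compound exposure (30 μM down to 10 nM, half-log steps) after tetracycline withdrawal induced HBV replication in HepAD38 cells. Extracellular viral DNA measured by QPCR (copies/mL via standard curve), normalised to DMSO wells; EC50 from 4-parameter non-linear regression.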

[2] = In vitro cytotoxicity, MTT cell viability assay in HepG2 cells; type: cell-based; conditions: human, Cytotoxicity CC50
Method in brief: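 HepG2 cells incubated 7 days at 37 °C, 5% CO2 with compounds from 30 μM to 1.0 nM (8 half-log dilutions). Viability read as MTT formazan absorbance at 492 nm, normalised to vehicle controls; CC50 from 4-parameter non-linear regression.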

SMILES	EC50 [1] [µM]	CC50 at 7 days [2] [µM]
COCC(C)(C)NC(=O)C(F)(F)c1cc(C(=O)Nc2ccc(F)c(C)c2)cn1C [Example 132, 5-(1,1-difluoro-2-((1-methoxy-2-methylpropan-2-yl)amino)-2-oxoethyl)-N-(4-fluoro-3-methylphenyl)-1-methyl-1H-pyrrole-3-carboxamide]	< 5	> 30
Cc1cc(NC(=O)c2ccc(C(F)(F)C(=O)N3CCC(O)CC3)s2)ccc1F [Example 63, 5-(1,1-difluoro-2-(4-hydroxypiperidin-1-yl)-2-oxoethyl)-N-(4-fluoro-3-methylphenyl)thiophene-2-carboxamide]	> 30	5 to 30
CC(=O)N1[C@H](C)CN(C(=O)C(F)(F)c2cc(C(=O)Nc3ccc(F)c(C)c3)ccc2F)C[C@@H]1C [Example 295, 3-(2-((3R,5S)-4-acetyl-3,5-dimethylpiperazin-1-yl)-1,1-difluoro-2-oxoethyl)-4-fluoro-N-(4-fluoro-3-methylphenyl)benzamide]	< 5	5 to 30
Cc1cc(NC(=O)c2cc(C(F)(F)C(=O)NC(C)(C)C)n(C)c2C)ccc1F [Example 106, 5-(2-(tert-butylamino)-1,1-difluoro-2-oxoethyl)-N-(4-fluoro-3-methylphenyl)-1,2-dimethyl-1H-pyrrole-3-carboxamide]	< 5	5 to 30
Cc1cc(NC(=O)c2ccc(F)c(C(F)(F)C(=O)N3[C@@H]4COC[C@H]3C[C@H](NS(C)(=O)=O)C4)c2)ccc1F [Example 306, 3-(1,1-difluoro-2-((1R,5S,7r)-7-(methylsulfonamido)-3-oxa-9-azabicyclo[3.3.1]nonan-9-yl)-2-oxoethyl)-4-fluoro-N-(4-fluoro-3-methylphenyl)benzamide]	< 5	5 to 30
CC[C@H](C)NC(=O)C(F)(F)c1cc(C(=O)Nc2ccc(F)c(C)c2)cn1C [Example 103, (S)-5-(2-(sec-butylamino)-1,1-difluoro-2-oxoethyl)-N-(4-fluoro-3-methylphenyl)-1-methyl-1H-pyrrole-3-carboxamide]	< 5	5 to 30
CC(C)(CO)NC(=O)C(F)(F)c1cc(C(=O)Nc2ccc(F)c(F)c2)ccc1F [Example 24, 3-(1,1-difluoro-2-((1-hydroxy-2-methylpropan-2-yl)amino)-2-oxoethyl)-N-(3,4-difluorophenyl)-4-fluorobenzamide]	5 to 30	5 to 30
Cc1cc(NC(=O)c2ccc(Cl)c(C(F)(F)C(=O)N3CC=CCC3)c2)ccc1F [Example 74, 4-chloro-3-(2-(3,6-dihydropyridin-1(2H)-yl)-1,1-difluoro-2-oxoethyl)-N-(4-fluoro-3-methylphenyl)benzamide]	< 5	5 to 30
O=C(Nc1cc(F)c(F)c(F)c1)c1ccc(F)c(C(F)(F)C(=O)N2[C@@H]3CC[C@H]2C[C@@H](O)C3)c1 [Example 173]	< 5	5 to 30
Cc1cc(NC(=O)c2csc(C(F)(F)C(=O)N3CCCC3)c2)ccc1F [Example 59, 5-(1,1-difluoro-2-oxo-2-(pyrrolidin-1-yl)ethyl)-N-(4-fluoro-3-methylphenyl)thiophene-3-carboxamide]	< 5	> 30
Cc1cc(NC(=O)c2ccc(F)c(C(F)(F)C(=O)N3C4CCC3CC(O)C4)c2)ccc1F [Example 78, 3-(1,1-difluoro-2-((1R,3r,5S)-3-hydroxy-8-azabicyclo[3.2.1]octan-8-yl)-2-oxoethyl)-4-fluoro-N-(4-fluoro-3-methylphenyl)benzamide]	< 5	5 to 30
Cc1cc(NC(=O)c2ccc(F)c(C(F)(F)C(=O)N3CCC(NS(C)(=O)=O)CC3)c2)ccc1F [Example 231, 3-(1,1-difluoro-2-(4-(methylsulfonamido)piperidin-1-yl)-2-oxoethyl)-4-fluoro-N-(4-fluoro-3-methylphenyl)benzamide]	< 5	5 to 30
Cn1cc(C(=O)Nc2ccc(F)c(Cl)c2)cc1C(F)(F)C(=O)NOC(C)(C)C [Example 144, 5-(2-(tert-butoxyamino)-1,1-difluoro-2-oxoethyl)-N-(3-chloro-4-fluorophenyl)-1-methyl-1H-pyrrole-3-carboxamide]	< 5	> 30
Cc1cc(NC(=O)c2ccc(F)c(C(F)(F)C(=O)N3CCc4sc(N)nc4C3)c2)ccc1F [Example 308, 3-(2-(2-amino-6,7-dihydrothiazolo[4,5-c]pyridin-5(4H)-yl)-1,1-difluoro-2-oxoethyl)-4-fluoro-N-(4-fluoro-3-methylphenyl)benzamide]	< 5	5 to 30
Cc1cc(NC(=O)c2ccc(F)c(C(F)(F)C(=O)N3C4CC[C@@H]3C[C@@H](O)C4)c2)cc(F)c1F [Example 246, 3-(1,1-difluoro-2-((1R,3s,5S)-3-hydroxy-8-azabicyclo[3.2.1]octan-8-yl)-2-oxoethyl)-N-(3,4-difluoro-5-methylphenyl)-4-fluorobenzamide]	< 5	5 to 30
Cc1cc(NC(=O)c2ccc(F)c(C(F)(F)C(=O)NC34CCC(NC(=O)OC(C)(C)C)(CC3)C4)c2)ccc1F [Example 252, tert-butyl (4-(2,2-difluoro-2-(2-fluoro-5-((4-fluoro-3-methylphenyl)carbamoyl)phenyl)acetamido)bicyclo[2.2.1]heptan-1-yl)carbamate]	5 to 30	< 5
Cc1cc(NC(=O)c2ccc(F)c(C(F)(F)C(=O)N3CCC(B(O)O)CC3)c2)ccc1F [Example 152, (1-(2,2-difluoro-2-(2-fluoro-5-((4-fluoro-3-methylphenyl)carbamoyl)phenyl)acetyl)piperidin-4-yl)boronic acid]	< 5	5 to 30
Cc1cc(NC(=O)c2cc(C(F)(F)C(=O)N[C@H]3CC[C@@H](O)CC3)n(C)c2)ccc1F [Example 125, 5-(1,1-difluoro-2-(((1s,4s)-4-hydroxycyclohexyl)amino)-2-oxoethyl)-N-(4-fluoro-3-methylphenyl)-1-methyl-1H-pyrrole-3-carboxamide]	< 5	> 30
Cc1cc(NC(=O)c2ccc(F)c(C(F)(F)C(=O)N3CCc4nc(N)sc4C3)n2)ccc1F [Example 303, 6-(2-(2-amino-6,7-dihydrothiazolo[5,4-c]pyridin-5(4H)-yl)-1,1-difluoro-2-oxoethyl)-5-fluoro-N-(4-fluoro-3-methylphenyl)picolinamide]	< 5	5 to 30
Cc1cc(NC(=O)c2cc(C(F)(F)C(=O)NC(C)C(F)(F)F)n(C)c2)ccc1F (centres unmarked) [Example 111, 5-(1,1-difluoro-2-oxo-2-((1,1,1-trifluoropropan-2-yl)amino)ethyl)-N-(4-fluoro-3-methylphenyl)-1-methyl-1H-pyrrole-3-carboxamide]	< 5	> 30
Cc1cc(NC(=O)c2ccc(F)c(C(F)(F)C(=O)NCB3O[C@@H]4C[C@@H]5C[C@@H](C5(C)C)[C@]4(C)O3)c2)ccc1F [Example 149, 3-(1,1-difluoro-2-oxo-2-((((3aS,4S,6S,7aR)-3a,5,5-trimethylhexahydro-4,6-methanobenzo[d][1,3,2]dioxaborol-2-yl)methyl)amino)ethyl)-4-fluoro-N-(4-fluoro-3-methylphenyl)benzamide]	< 5	5 to 30
N#Cc1cc(NC(=O)c2ccc(F)c(C(F)(F)C(=O)N3CCC(O)C(F)(F)C3)c2)ccc1F (centres unmarked) [Example 177, N-(3-cyano-4-fluorophenyl)-3-(2-(3,3-difluoro-4-hydroxypiperidin-1-yl)-1,1-difluoro-2-oxoethyl)-4-fluorobenzamide]	< 5	5 to 30
Cn1cc(NC(=O)c2ccc(F)c(C(F)(F)C(=O)N3[C@@H]4CC[C@H]3C[C@H](O)C4)c2)cn1 [Example 181, 3-(1,1-difluoro-2-((1R,3s,5S)-3-hydroxy-8-azabicyclo[3.2.1]octan-8-yl)-2-oxoethyl)-4-fluoro-N-(1-methyl-1H-pyrazol-4-yl)benzamide]	5 to 30	> 30
Cc1cc(NC(=O)c2ccc(F)c(C(F)(F)C(=O)N3CCC(C(N)=O)CC3)c2)ccc1F [Example 164, 1-(2,2-difluoro-2-(2-fluoro-5-((4-fluoro-3-methylphenyl)carbamoyl)phenyl)acetyl)piperidine-4-carboxamide]	< 5	> 30
Cc1cc(NC(=O)c2ccc(F)c(C(F)(F)C(=O)N3CCC(N)CC3)c2)ccc1F [Example 230, 3-(2-(4-aminopiperidin-1-yl)-1,1-difluoro-2-oxoethyl)-4-fluoro-N-(4-fluoro-3-methylphenyl)benzamide]	< 5	5 to 30
Cc1cc(NC(=O)c2nn(C)cc2C(F)(F)C(=O)NC(C)(C)C)ccc1F [Example 166, 4-(2-(tert-butylamino)-1,1-difluoro-2-oxoethyl)-N-(4-fluoro-3-methylphenyl)-1-methyl-1H-pyrazole-3-carboxamide]	5 to 30	> 30
Cc1cc(NC(=O)c2cc(C(F)(F)C(=O)NC3(C)CCCOC3)n(C)c2)ccc1F (centres unmarked) [Example 133, 5-(1,1-difluoro-2-((3-methyltetrahydro-2H-pyran-3-yl)amino)-2-oxoethyl)-N-(4-fluoro-3-methylphenyl)-1-methyl-1H-pyrrole-3-carboxamide]	< 5	> 30
Cc1cc(NC(=O)c2ccc(F)c(C(F)(F)C(=O)N3CCC(C(=O)O)CC3)c2)ccc1F [Example 118, 1-(2,2-difluoro-2-(2-fluoro-5-((4-fluoro-3-methylphenyl)carbamoyl)phenyl)acetyl)piperidine-4-carboxylic acid]	< 5	> 30
